Where a name gives a salt, the structure may show the parent alone.
Key:
[1] = target: T1, furin (endogenous protease) in U20S cells (Homo sapiens, UniProt P09958); test: Furin cell-based assay (image-based, Golgi-targeted GFP with BMP10 furin/PCSK cleavage site); details: 24-hour incubation, read-out: furin golgi cell pXC50 (converted);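 also: Read-out is mean GFP fluorescence of Golgi puncta per cell by high-content imaging, retained when furin inhibited, over an eleven-point 0.00017–10 µM series, four-parameter fit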
T1 construct: the endogenous protease cleaves GFP; endogenous in cells; host or cells: U2OS cells transduced with a BacMam reporter
T1 sequence (P09958 108-794): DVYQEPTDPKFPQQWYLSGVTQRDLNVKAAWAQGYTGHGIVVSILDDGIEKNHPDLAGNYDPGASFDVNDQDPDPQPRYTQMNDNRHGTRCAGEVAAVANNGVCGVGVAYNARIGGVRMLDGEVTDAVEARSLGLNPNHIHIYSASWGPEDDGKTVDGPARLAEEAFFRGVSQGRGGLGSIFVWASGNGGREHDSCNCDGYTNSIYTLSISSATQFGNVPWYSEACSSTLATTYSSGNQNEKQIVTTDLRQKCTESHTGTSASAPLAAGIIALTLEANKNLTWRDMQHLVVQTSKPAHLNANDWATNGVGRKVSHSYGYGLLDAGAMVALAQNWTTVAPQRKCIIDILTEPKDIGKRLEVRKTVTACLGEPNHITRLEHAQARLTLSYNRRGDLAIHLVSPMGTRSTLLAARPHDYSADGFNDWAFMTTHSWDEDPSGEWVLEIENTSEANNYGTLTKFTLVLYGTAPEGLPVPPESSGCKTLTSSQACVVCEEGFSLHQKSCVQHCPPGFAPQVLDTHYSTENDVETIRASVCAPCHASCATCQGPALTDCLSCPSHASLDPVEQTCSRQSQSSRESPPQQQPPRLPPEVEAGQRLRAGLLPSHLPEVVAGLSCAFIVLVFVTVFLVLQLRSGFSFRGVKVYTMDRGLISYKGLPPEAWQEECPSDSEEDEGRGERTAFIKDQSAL

[2] = target: T2, Furin (108-574-Tev-Flag-His) enzyme (Homo sapiens, UniProt P09958); test: Furin enzyme assay; format: biochemical
T2 construct: Furin (108-574-Tev-Flag-His) enzyme was expressed and purified from CHO cells; TEV cleavage site (C); FLAG (C); His (C); made in house; host or cells: CHO cells
T2 sequence (P09958 108-574): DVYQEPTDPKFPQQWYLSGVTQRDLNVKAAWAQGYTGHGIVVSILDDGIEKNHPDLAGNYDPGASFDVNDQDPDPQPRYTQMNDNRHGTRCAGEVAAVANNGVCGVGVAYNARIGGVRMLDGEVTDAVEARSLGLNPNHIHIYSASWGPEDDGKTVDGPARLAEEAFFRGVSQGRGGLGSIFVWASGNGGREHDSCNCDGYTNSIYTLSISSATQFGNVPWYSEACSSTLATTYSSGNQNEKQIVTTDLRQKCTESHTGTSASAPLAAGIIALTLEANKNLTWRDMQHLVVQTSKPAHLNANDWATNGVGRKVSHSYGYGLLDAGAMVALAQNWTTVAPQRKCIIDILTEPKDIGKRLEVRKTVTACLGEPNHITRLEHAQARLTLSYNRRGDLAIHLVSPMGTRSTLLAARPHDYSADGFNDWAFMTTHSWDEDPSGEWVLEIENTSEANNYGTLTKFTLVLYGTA
How it was run: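 CHO-expressed, purified furin construct at 40 pM in 100 mM HEPES pH7.5, 1 mM CaCl2, 0.005% Triton X-100. Eleven-point 1:3 series, 0.00017–10 μM final, incubated 2 h at room temperature and read on Envision. pXC50 from four-parameter fit.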

SMILES	EC50 [1] [nM]	furin enzyme pIC50 [2]	IC50 ([2]; read-out: furin enzyme pIC50 (converted)) [nM]
CN1CCN(c2ccc(Oc3cc(CN4CCC(CC(=O)O)CC4)cc(-c4cc(Cl)cc(Cl)c4)n3)nn2)CC1 [Example 359, 2-(1-((2-(3,5-dichlorophenyl)-6-((6-(4-methylpiperazin-1-yl)pyridazin-3-yl)oxy)pyridin-4-yl)methyl)piperidin-4-yl)acetic acid]	63.1	9	
CC(=O)NCC1CCN(Cc2cc(Oc3cnc(N4CCN(CCCS(C)(=O)=O)CC4)nc3)nc(-c3cc(Cl)cc(Cl)c3)c2)CC1 [Example 259, N-((1-((2-(3,5-dichlorophenyl)-6-((2-(4-(3-(methylsulfonyl)propyl)piperazin-1-yl)pyrimidin-5-yl)oxy)pyridin-4-yl)methyl)piperidin-4-yl)methyl)acetamide]	1.58	9.8	
CNC(=O)NCC1CCN(Cc2cc(Oc3cnc(N4CCN(C5CC(C(=O)O)C5)CC4)nc3)nc(-c3cc(Cl)cc(Cl)c3)c2)CC1 (stereo not shown) [Example 221, 3-(4-(5-((6-(3,5-dichlorophenyl)-4-((4-((3-methylureido)methyl)piperidin-1-yl)methyl)pyridin-2-yl)oxy)pyrimidin-2-yl)piperazin-1-yl)cyclobutanecarboxylic acid]	5.01	10.4	
CNC(=O)OCC1CCN(Cc2cc(Oc3cnc(N4CCN(C)CC4)nc3)nc(-c3cc(Cl)cc(Cl)c3)c2)CC1 [Example 66, (1-((2-(3,5-dichlorophenyl)-6-((2-(4-methylpiperazin-1-yl)pyrimidin-5-yl)oxy)pyridin-4-yl)methyl)piperidin-4-yl)methyl methylcarbamate]	7.94		1.58
CC(CC1CCN(Cc2cc(Oc3cnc(N4CCN(C[C@@H](C)O)CC4)nc3)nc(-c3cc(Cl)cc(Cl)c3)c2)CC1)C(=O)O (stereo partly drawn) [Example 301, 3-(1-((2-(3,5-dichlorophenyl)-6-((2-(4-((R)-2-hydroxypropyl)piperazin-1-yl)pyrimidin-5-yl)oxy)pyridin-4-yl)methyl)piperidin-4-yl)-2-methylpropanoic acid]	39.8	9.6	
CN1C2CC1CN(c1ncc(Oc3cc(CN4CCC(CC(=O)O)CC4)cc(-c4cc(Cl)cc(Cl)c4)n3)cn1)C2 [Example 228, 2-(1-((2-(3,5-dichlorophenyl)-6-((2-(6-methyl-3,6-diazabicyclo[3.1.1]heptan-3-yl)pyrimidin-5-yl)oxy)pyridin-4-yl)methyl)piperidin-4-yl)acetic acid]	39.8	8.6	
CN1CCN(c2ncc(Oc3cc(CN4CC[C@@H]5[C@H](CC4)[C@H]5CC(=O)O)cc(-c4cc(Cl)cc(Cl)c4)n3)cn2)CC1 [Example 224, 2-((1R,7S,8r)-4-((2-(3,5-dichlorophenyl)-6-((2-(4-methylpiperazin-1-yl)pyrimidin-5-yl)oxy)pyridin-4-yl)methyl)-4-azabicyclo[5.1.0]octan-8-yl)acetic acid]	7.94	8.7	
CN1CC2CN(c3ncc(Oc4cc(CN5CCC(CC(=O)O)CC5)cc(-c5cc(Cl)cc(Cl)c5)n4)cn3)CC2C1 (stereo not shown) [Example 133, 2-(1-((2-(3,5-dichlorophenyl)-6-((2-(5-methylhexahydropyrrolo[3,4-c]pyrrol-2(1H)-yl)pyrimidin-5-yl)oxy)pyridin-4-yl)methyl)piperidin-4-yl)acetic acid]	39.8	8.3	
CC(C)(O)CN1CCN(c2cnc(Oc3cc(CN4CCC(CC(=O)O)CC4)cc(-c4cc(Cl)cc(Cl)c4)n3)cn2)CC1 [Example 343, 2-(1-((2-(3,5-dichlorophenyl)-6-((5-(4-(2-hydroxy-2-methylpropyl)piperazin-1-yl)pyrazin-2-yl)oxy)pyridin-4-yl)methyl)piperidin-4-yl)acetic acid]	63.1	8.7	
CNC(=O)NCC1CCN(Cc2cc(Oc3ccc(N4CCN(C)CC4)nc3)nc(-c3cc(Cl)cc(Cl)c3)c2)CC1 [Example 69, 1-((1-((2-(3,5-dichlorophenyl)-6-((6-(4-methylpiperazin-1-yl)pyridin-3-yl)oxy)pyridin-4-yl)methyl)piperidin-4-yl)methyl)-3-methylurea]	5.01	9.1	
O=C(O)CC1CCN(Cc2cc(Oc3cnc(N4CCN(CCF)CC4)nc3)nc(-c3cc(Cl)cc(Cl)c3)c2)CC1 [Example 236, 2-(1-((2-(3,5-Dichlorophenyl)-6-((2-(4-(2-fluoroethyl)piperazin-1-yl)pyrimidin-5-yl)oxy)pyridin-4-yl)methyl)piperidin-4-yl)acetic acid]	39.8	8.5	
CC(=O)NCC1CCN(Cc2cc(Oc3ccc(N4CC[C@@H](N)[C@@H](F)C4)nc3)cc(-c3cc(Cl)cc(Cl)c3)c2)CC1 [Example 106, N-((1-((5-((6-((r/3)-4-Amino-3-fluoropiperidin-1-yl)pyridin-3-yl)oxy)-3′,5′-dichloro-[1,1′-biphenyl]-3-yl)methyl)piperidin-4-yl)methyl)acetamide, 3 hydrochloride]	3.16	9.4	
COCCN1CCN(c2ncc(Oc3cc(CN4CCC(CNC(C)=O)CC4)cc(-c4cc(Cl)cc(Cl)c4)n3)cn2)CC1 [Example 245, N-((1-((2-(3,5-dichlorophenyl)-6-((2-(4-(2-methoxyethyl)piperazin-1-yl)pyrimidin-5-yl)oxy)pyridin-4-yl)methyl)piperidin-4-yl)methyl)acetamide]	3.98	10	
CN1CCN(c2ncc(Oc3cc(CN4CCC(OCC(=O)O)CC4)cc(-c4cc(Cl)cc(Cl)c4)n3)cn2)CC1 [Example 53, 2-((1-((2-(3,5-Dichlorophenyl)-6-((2-(4-methylpiperazin-1-yl)pyrimidin-5-yl)oxy)pyridin-4-yl)methyl)piperidin-4-yl)oxy)acetic acid, 4 hydrochloride]	15.8	8.7	
CS(=O)(=O)CCCN1CCN(c2cnc(Oc3cc(CN4CCC(CC(=O)O)CC4)cc(-c4cc(Cl)cc(Cl)c4)n3)cn2)CC1 [Example 354, 2-(1-((2-(3,5-dichlorophenyl)-6-((5-(4-(3-(methylsulfonyl)propyl)piperazin-1-yl)pyrazin-2-yl)oxy)pyridin-4-yl)methyl)piperidin-4-yl)acetic acid]	25.1	8.1	
O=C(O)CC1CCN(Cc2cc(Oc3cnc(N4CCNCC4)cn3)nc(-c3cc(Cl)cc(Cl)c3)c2)CC1 [Example 112, 2-(1-((2-(3,5-Dichlorophenyl)-6-((5-(piperazin-1-yl)pyrazin-2-yl)oxy)pyridin-4-yl)methyl)piperidin-4-yl)acetic acid]	126	8.9	
O=C(O)CCC1CCN(Cc2cc(Oc3ccc(N4CCN(CCO)CC4)nc3)nc(-c3cc(Cl)cc(Cl)c3)c2)CC1 [Example 314, 3-(1-((2-(3,5-dichlorophenyl)-6-((6-(4-(2-hydroxyethyl)piperazin-1-yl)pyridin-3-yl)oxy)pyridin-4-yl)methyl)piperidin-4-yl)propanoic acid]	31.6	8.9	
CC(O)CCN1CCN(c2cnc(Oc3cc(CN4CCC(CC(=O)O)CC4)cc(-c4cc(Cl)cc(Cl)c4)n3)cn2)CC1 (stereo not shown) [Example 349, 2-(1-((2-(3,5-dichlorophenyl)-6-((5-(4-(3-hydroxybutyl)piperazin-1-yl)pyrazin-2-yl)oxy)pyridin-4-yl)methyl)piperidin-4-yl)acetic acid]	10	8.6	
CC(=O)NCC1CCN(Cc2cc(Oc3cnc(N4CCN(CCCC(N)=O)CC4)nc3)nc(-c3cc(Cl)cc(Cl)c3)c2)CC1 [Example 96, 4-(4-(5-((4-((4-(Acetamidomethyl)piperidin-1-yl)methyl)-6-(3,5-dichlorophenyl)pyridin-2-yl)oxy)pyrimidin-2-yl)piperazin-1-yl)butanamide]	1.58	9	
CCC(=O)NCC1CCN(Cc2cc(Oc3cnc(N4CCN(CCC(C)C(=O)O)CC4)nc3)nc(-c3cc(Cl)cc(Cl)c3)c2)CC1 (stereo not shown) [Example 59, 4-(4-(5-((6-(3,5-dichlorophenyl)-4-((4-(propionamidomethyl)piperidin-1-yl)methyl)pyridin-2-yl)oxy)pyrimidin-2-yl)piperazin-1-yl)-2-methylbutanoic acid]	6.31	8.9	
COC(=O)C(C)CCN1CCN(c2ncc(Oc3cc(CN4CCC(CNC(C)=O)CC4)cc(-c4cc(Cl)cc(Cl)c4)n3)cn2)CC1 (stereo not shown) [Example 368, methyl 4-(4-(5-((4-((4-(acetamidomethyl)piperidin-1-yl)methyl)-6-(3,5-dichlorophenyl)pyridin-2-yl)oxy)pyrimidin-2-yl)piperazin-1-yl)-2-methylbutanoate]	3.98	8.3	
CC(=O)NCC1CCN(Cc2cc(Oc3cnc(N4CCN(C(C)CCS(C)(=O)=O)CC4)nc3)nc(-c3cc(Cl)cc(Cl)c3)c2)CC1 (stereo not shown) [Example 19, N-((1-((2-(3,5-dichlorophenyl)-6-((2-(4-(4-(methylsulfonyl)butan-2-yl)piperazin-1-yl)pyrimidin-5-yl)oxy)pyridin-4-yl)methyl)piperidin-4-yl)methyl)acetamide]	0.398	10.2	
CC(=O)NCC1CCN(Cc2cc(Oc3ccc(N4CC[N+](CCO)(CCO)CC4)nc3)nc(-c3cc(Cl)cc(Cl)c3)c2)CC1 [Example 179, 1-(4-(5-((4-((4-(Acetamidomethyl)piperidin-1-yl)methyl)-6-(3,5-dichlorophenyl)pyridin-2-yl)oxy)pyridin-2-yl)-1-(2-hydroxyethyl)piperazin-1-ium-1-yl)-2-hydroxyethan-1-ide]	12.6	8.8	
